Test system: B16F10 parental and DTIC-resistant cells
Test: In vitro cell growth in response to dacarbazine
Assay type: cell-based, mouse
Settings: high-dose DTIC treatment
Text: FIG. 31A-I. Activation of LXRβ Suppresses the In Vivo Growth of Melanoma Lines Resistant to Dacarbazine and Vemurafenib. (FIG. 31A) In vitro cell growth by 2.5×10^4 B16F10 parental cells and in vitro-derived B16F10 DTIC-resistant cells in response to varying doses of dacarbazine (DTIC) added to the cell media for 4 days. n=3. (FIG. 31B-FIG. 31D) Tumor growth by 5×10^4 DTIC-sensitive B16F10 parental cells (FIG. 31B) or 5×10^4 DTIC-resistant B16F10 cells (FIG. 31C) subcutaneously injected into C57BL/6-WT mice. Following tumor growth to 5-10 mm3 in volume, mice were treated with dacarbazine (50 mg/kg, i.p., daily) or a control vehicle and randomly assigned to regular chow or a chow supplemented with GW3965 (100 mg/kg). Final day tumor volume measurements are shown in (FIG. 31D). n=8-16 (FIG. 31B), 7-8 (FIG. 31C). (FIG. 31E-FIG. 31F) Tumor growth by DTIC-sensitive MeWo parental cells and in vivo-derived DTIC-resistant MeWo human melanoma cells in response to DTIC or GW3965 treatments. 5×10^5 cells were subcutaneously injected into NOD Scid gamma mice. After formation of tumors measuring 5-10 mm3 in volume, mice were blindedly assigned to a control treatment, a DTIC treatment (50 mg/kg, i.p., administered daily in 5-day cycles with 2-day off-treatment intervals), or a GW3965-supplemented diet treatment (100 mg/kg). Final day tumor measurements are show in (FIG. 31F). n=6-8. […]

CN(C)/N=N/c1[nH]cnc1C(N)=O [dacarbazine] was tested, and the “increase in viability of DTIC-resistant cells compared to parental B16F10” value was 7 fold.

Reference: US9399028B2, “Treatment of drug resistant cancer” (ROCKEFELLER UNIVERSITY (THE), priority 2012, dated 2016)
